Laboratory results from patent publication US5571534A, “Drug formulations for parenteral use” (Orion-yhtyma Oy, priority 1991, dated 1996).
≈ marks a conversion by molar mass, not a printed value. Like-named read-outs stand apart in the source and are kept apart here.

What was measured:
[1] = HPLC measurement of the solubility of the anti-estrogen in an aqueous solution of 2-hydroxypropyl cyclodextrin; format: physicochemical; details: room temperature; for solubility: read-out: Toremifene solubility (mg of toremifene / ml of cyclodextrin-water soln.)
Protocol: A weighed amount of 2-hydroxypropyl cyclodextrin was dissolved into distilled water by shaking with a shaker. The so formed clear solution was equilibrated with a large excess of antiestrogen at the boiling point. […] The solution was kept overnight at room temperature and the excess of precipitated antiestrogen was removed by centrifugation.
The separations were carried out at room temperature on a 35 * 4.6 mm stainless steel column (packed with 3-μm spherical octadecylsilanebonded silica particles; HS-3 C-18, (Perkin-Elmer, USA)
The mobile phase consisted of a mixture of acetonitrile: 0.05 M aqueous phosphate buffer containing 0.004 M of dimethyloctyl amine with a pH of 7.4. The flow rate was 0.8 ml/min.

[2] = Toremifene concentration in emulsion (Emulsan 20%) after filtration, spectrophotometric at 278 nm; format: physicochemical; details: for Concentration after filtration: toremifene citrate in Emulsan 20%
Protocol: Emulsions prepared by dissolving the drug in a commercial fat emulsion.
The commercial fat emulsion used was Emulsan®20% (manufacturer Leiras-Kabi Infusion Ltd., Finland). […] The toremifene concentrations were 10 mg/ml, 14 mg/ml and 20 mg/ml. After the homogenization the samples were filtered through the 0.2 μm, 0.45 μm and 1.2 μm filters.
The concentration of toremifene was determined from the filtrate with a spectrofotometric method using the wave length of 278 nm. The samples were dissolved in methanol and diluted in the concentration of 0.02 mg/ml.

multidrug resistance = details: high vs low plasma concentrations; J Clinical Oncology 1989; cited from earlier work

| Desmethyl toremifene solubility (ml of desmethyl toremifene / ml of cyclodextrin-water soln.) ([1]; 125 mg β-HPC/ml of aqueous soln.) | Structure (SMILES) | Concentration after filtration ([2]; 10 mg/ml before filtration, 0.2 μm filter) | Concentration after filtration ([2]; 10 mg/ml before filtration, 0.45 μm filter) | Concentration after filtration ([2]; 10 mg/ml before filtration, 1.2 μm filter) | Concentration after filtration ([2]; 14 mg/ml before filtration, 0.45 μm filter) | Concentration after filtration ([2]; 14 mg/ml before filtration, 1.2 μm filter) | Concentration after filtration ([2]; 20 mg/ml before filtration, 0.45 μm filter) | Concentration after filtration ([2]; 20 mg/ml before filtration, 1.2 μm filter) | solubility of toremifene by encapsulating in an emulsion droplet ([2]; emulsion droplet) | solubility ([1]; aqueous 2-hydroxypropyl cyclodextrin solution, 500 mg β-HPC/ml of aqueous soln.) | solubility ([1]; aqueous β-hpc solution, 25 mg/ml, 25 mg β-HPC/ml of aqueous soln.) | solubility ([1]; aqueous β-hpc solution, 63 mg/ml, 63 mg β-HPC/ml of aqueous soln.) | solubility ([1]; aqueous β-hpc solution, 125 mg/ml, 125 mg β-HPC/ml of aqueous soln.) | solubility ([1]; aqueous β-hpc solution, 250 mg/ml, 250 mg β-HPC/ml of aqueous soln.) | solubility ([1]; aqueous γ-hpc solution, 125 mg/ml, 125 mg Γ-HPC/ml of aqueous soln.) | solubility ([1]; aqueous γ-hpc solution, 250 mg/ml, 250 mg Γ-HPC/ml of aqueous soln.) | solubility ([1]; aqueous γ-hpc solution, 500 mg/ml, 500 mg Γ-HPC/ml of aqueous soln.) | solubility ([1]; water, 0 mg β-HPC/ml of aqueous soln.) | reversing multidrug resistance (multidrug resistance) |
| --- | --- | --- | --- | --- | --- | --- | --- | --- | --- | --- | --- | --- | --- | --- | --- | --- | --- | --- | --- |
| 21 mg/mL | CNCCOc1ccc(/C(=C(/CCCl)c2ccccc2)c2ccccc2)cc1 [desmethyl toremifene] | – | – | – | – | – | – | – | – | – | – | – | – | – | – | – | – | – | – |
| – | CN(C)CCOc1ccc(/C(=C(/CCCl)c2ccccc2)c2ccccc2)cc1 [toremifene] | 4400 µg/mL | 4000 µg/mL | 4400 µg/mL | 4300 µg/mL | 3700 µg/mL | 3600 µg/mL | 3600 µg/mL | can be increased considerably | 87.7 mg/mL (≈ 216 mM) | 7.4 mg/mL (≈ 18.2 mM) | 14.1 mg/mL (≈ 34.7 mM) | 21.7 mg/mL (≈ 53.5 mM) | 53 mg/mL (≈ 131 mM) | 36.3 mg/mL (≈ 89.4 mM) | 61.1 mg/mL (≈ 151 mM) | 125 mg/mL (≈ 309 mM) | 0.3 mg/mL (≈ 0.739 mM) | more effective in reversing multidrug resistance than low concentrations |
